Reference: the CATMoS acute toxicity set (Mansouri et al. 2021)

Assay: rat acute oral toxicity
Settings: in vivo
Description: […]The data set underlying the modeling effort for this project was initially compiled by NICEATM and U.S. EPA’s CCTE. Briefly, LD50 data were collected from rat acute oral systemic toxicity tests, including limit tests, ranges/confidence intervals, and discrete LD50 values. The full data set included 21,200 LD50 entries for 15,688 substances. […] Data were reviewed to ensure that LD50 values with obvious errors in the extracted data such as unit conversion errors (e.g., comma and decimal separator misplacements) were either fixed or removed. After this review, 16,209 LD50 values remained. Many of the chemicals represented had multiple LD50 entries, requiring that a single representative value per Chemical Abstracts Service Registry Number (CASRN) identifier be defined to facilitate modeling efforts. Based on ATWG feedback and to define the representative LD50 as a protective value while accounting for the distribution across multiple LD50s, the median of the lowest quartile was computed using only discrete LD50 values (omitting limit test data and range and confidence interval data). A detailed summary of the data compilation is available online on the NICEATM webpage dedicated to the collaborative modeling project (NTP 2020).
[…][…] For categorical designations, limit test and range/confidence interval LD50 data were integrated wherever possible. As such, the number of chemicals with end point values/calls varies across the modeling end points (Table 3) based on whether chemicals had representative LD50 values and/or other data. If a chemical had both, the representative value was used to determine categorical calls rather than limit test data. Some data were useable only for certain end points and categories depending on the thresholds. For example, ranges that spanned multiple hazard categories were considered only for the binary (very toxic/nontoxic) end points and omitted from rendering a determination for hazard category assignment.
[…]The final data set comprising 11,992 chemicals was split into training and evaluation sets […], respectively. This process was performed semirandomly by ordering chemicals based on the five end points (categorical and continuous LD50 values) and partitioning every fourth record into the evaluation set accordingly. This approach was taken to ensure an equivalent distribution of the LD50 values and the different hazard categories between the training and the evaluation sets without supervised sampling of the chemicals based on structures (Figure 1A). The sources of the chemical structures were also kept equivalent between the two sets, with chemical structures obtained from DSSTox, being the highest quality, representing over 75% of each set (Figure 1B).

| SMILES | LD50 [mg/kg] |
| --- | --- |
| COC(=O)CS | 84 |
| CCC(=O)O | 2600 |
| c1ccc(Nc2ccccc2)cc1 | 1120 |
| Cc1ccc([N+](=O)[O-])c(C)c1 | 1690 |
| O=C=Nc1cccc(C(F)(F)F)c1 | 975 |
| COC(=O)C(C)Oc1ccc(Oc2ccc(Cl)cc2Cl)cc1 (stereo unspecified) | 481 |
| OCCCCO | 1350 |
| CC(O)CO (stereo unspecified) | 20000 |
| CC(O)CN(CCCN(C)C)CCCN(C)C (stereo unspecified) | 1330 |
| CCSC(=O)N(CC)C1CCCCC1 | 1680 |
| NNC(=O)c1ccncc1 | 650 |
| CCCCC(CC)CO (stereo unspecified) | 2050 |
| CC(=O)OCCOC(C)=O | 6850 |
| O=C(O)c1ccccc1 | 1700 |
| CCc1cccc(C)c1N(C(=O)CCl)C(C)COC (stereo unspecified) | 2200 |
| CC(O)COc1ccccc1 (stereo unspecified) | 2830 |
| NC(N)=S | 20 |
| CCCCCCCCCc1ccc(OCCOCCO)cc1 | 1310 |
| O=C=Nc1ccccc1 | 800 |
| c1ccc(Oc2ccccc2)cc1 | 2450 |
| Nc1ccc(O)c([N+](=O)[O-])c1 | 1470 |
| CCC(=O)C(CC(C)N(C)C)(c1ccccc1)c1ccccc1 (stereo unspecified) | 30 |
| CCCCOC(=O)COc1ccc(Cl)cc1Cl | 600 |
| COCCO | 2260 |

| SMILES | LD50 [mg/kg] |
| --- | --- |
| CN(C)C(=O)Nc1cccc(C(F)(F)F)c1 | 1450 |
| O=P(O)(O)CCCl | 3400 |
| O=C(O)c1ccc2c(c1)C(=O)OC2=O | 2030 |
| O=C(NCc1cccnc1)Nc1ccc([N+](=O)[O-])cc1 | 4.75 |
| CC1(C)OC[C@@H]2O[C@@]3(C(=O)O)OC(C)(C)O[C@H]3[C@@H]2O1 | 18000 |
| CC(C)CC(=O)CC(C)C | 5260 |
| CCOc1ccc2c(c1)C(C)=CC(C)(C)N2 | 800 |
| CC1=CC(C)(C)CC(=O)C1 | 1500 |
| CCCCCCCCCCCCCCN(C)C | 1320 |
| CCCCC(Oc1ccc([N+](=O)[O-])cc1C=O)C(=O)O (stereo unspecified) | 500 |
| Nc1ccc(Sc2ccc(N)cc2)cc1 | 900 |
| CN=C(O)Oc1cccc(C)c1 | 268 |
| CCOC(=O)C(C)Oc1ccc(Oc2nc3ccc(Cl)cc3o2)cc1 (stereo unspecified) | 2360 |
| O=C1NC(=O)C(c2ccccc2)(c2ccccc2)N1 | 250 |
| Cc1ccc(NC(=O)N(C)C)cc1Cl | 5800 |
| Oc1ccccc1O | 260 |
| Cc1cc(Cl)ccc1OCC(=O)O | 700 |
| CC[C@H]1OC(=O)[C@H](C)[C@@H](O[C@H]2C[C@@](C)(OC)[C@@H](O)[C@H](C)O2)[C@H](C)[C@@H](O[C@@H]2O[C@H](C)C[C@H](N(C)C)[C@H]2O)[C@](C)(O)C[C@@H](C)C(=O)[C@H](C)[C@@H](O)[C@]1(C)O | 4600 |
| C=CC(C#N)OC(C)=O (stereo unspecified) | 31.6 |
| Oc1ccccc1Cl | 40 |
| COCCOCCOCCOCCOC | 3850 |
| COP(=S)(OC)Oc1ccc([N+](=O)[O-])c(C)c1 | 250 |
| CC(C)N(C(=O)SCC(Cl)=C(Cl)Cl)C(C)C | 200 |
| Cc1ccc(N)cc1N | 73 |

| SMILES | LD50 [mg/kg] |
| --- | --- |
| c1ccncc1 | 891 |
| O=C(CC(C(=O)OC1CCCCC1)S(=O)(=O)O)OC1CCCCC1 (stereo unspecified) | 2830 |
| CC(C)CCCCCCO | 2980 |
| CCCCCC | 25000 |
| CCOc1ccc(NC(N)=O)cc1 | 1900 |
| COC(=O)c1ccccc1C(=O)OC | 2860 |
| CN(CC[C@H](N)CC(O)=N[C@H]1C=C[C@H](n2ccc(=N)nc2O)O[C@@H]1C(=O)O)C(=N)N | 53.3 |
| C=CC1CC=CCC1 (stereo unspecified) | 1600 |
| COP(=S)(Oc1cc(Cl)c(Br)cc1Cl)c1ccccc1 (stereo unspecified) | 19 |
| Cc1nc(N(C)C)nc(OC(=O)N(C)C)c1C | 100 |
| C=CC(=O)NC(C)(C)CC(C)=O | 1000 |
| C/C=C/C=O | 165 |
| C=C(Cl)Cl | 80 |
| ClC1=C(Cl)[C@]2(Cl)[C@H]3[C@H]([C@@H]4C=C[C@H]3C4)[C@@]1(Cl)C2(Cl)Cl (racemic) | 39 |
| N#Cc1ccccc1O | 300 |
| CCc1nn(C)c(C(=O)NCc2ccc(C(C)(C)C)cc2)c1Cl | 595 |
| O=C(O)CF | 0.1 |
| CCN | 400 |
| N[C@@H](Cc1ccc(N(CCCl)CCCl)cc1)C(=O)O | 11.2 |
| CCCSC(=O)N(CCC)CCC | 1200 |
| COc1cc(CNC(=O)CCCC/C=C/C(C)C)ccc1O | 148 |
| COc1ccc(C(=CC(=O)N2CCOCC2)c2ccc(Cl)cc2)cc1OC | 3900 |
| Cc1ccc(N)c(C)c1 | 467 |
